Experimental data published in patent US9556437B2, “FAT1 gene in cancer and inflammation” (DEPARTMENT OF BIOTECHNOLOGY (DBT), priority 2012, dated 2017).
Entries after “also recorded” stand apart in the source; their conditions may differ.

How the values were obtained:
Assay type in all cases: cell-based, human
U87MG cells [1] = assay: Apoptosis by caspase3 Western blot and DAPI staining; conditions: 72 hrs of transfection
IL6 = IL6 mRNA expression by q-PCR; conditions: U87MGsiFAT1 vs siControl
Procedure: Cell Culture and siRNA Transfection: The human glioma cell lines U87MG, U373, A172, T98G, GOS3 and SW1088 were obtained from ATCC; Rockville, Md., cultured in DMEM (Sigma-Aldrich, Switzerland) supplemented with 10% (v/v) FCS (Sigma-Aldrich), 3.7 g/l sodium bicarbonate (Sigma-Aldrich), Ciprofloxacin 10 μg/ml and 5% CO2 at 37° C. For transfection, 2×10^5 cells were seeded per 25 cm^2 flask. After 24 hrs, cells were transfected with FAT1 siRNA and universal medium GC control siRNA (Invitrogen) according to the manufacturer's protocol with a final concentration of 20 nM of siRNA using LIPOFECTAMINE 2000 (Invitrogen) and Opti-Mem media (Invitrogen). After 4 hrs of siRNA transfection, the media was supplemented with DMEM containing 2×FCS. […] Photomicrographs of the cells were taken using an inverted phase contrast microscope (Nikon TMS, Phase contrast microscope, Japan). For simultaneous knockdown of FAT1 and PDCD4, siRNA from Dharmacon were used. Transfection was performed as earlier with 50 nM of FAT1 siRNA along with 50 nM of PDCD4 siRNA or 50 nM of control siRNA.
cDNA Synthesis and Quantitative PCR: Total RNA was isolated from cells at appropriate time point (vide supra) using TRIzol reagent (Invitrogen), quantified using a Nanodrop ND-1000 spectrophotometer.

c-jun = assay: Western blot total c-jun; conditions: U87MGsiFAT1 vs siControl
Procedure: (§1) Western Blotting Analyses: Cells were lysed in triple detergent buffer containing protease and phosphatase inhibitors (Sigma Aldrich), lysates were quantified by BCA kit (Pierce, Thermo Fisher Scientific, Rockford, Ill. USA) and electrophoresed in 10% SDS-PAGE and electroblotted on nitrocellulose membrane (Millipore, Billerica, Mass., USA). Membrane was blocked with 5% bovine serum albumin (BSA) in 1×TBS at 4° C. for overnight. Primary and secondary antibody was diluted in 5% BSA and 0.1% tween-20 in 1×TBS. Blot was incubated in primary antibody overnight at 4° C. followed by secondary antibody incubation for 2 hrs at room temperature. Blot was developed by BCIP-NBT (Promega, Madison, Wis., USA) and captured using Alpha Imager EP software.

PGE2 = PGE2 ELISA of conditioned medium; conditions: U87MGsiFAT1 vs siControl, 72 hrs, p<0.01
Procedure: PGE2 ELISA: U87MG cells (2.5×10^5 cells/flask) were plated into 25 cm^2 flask. Transfection was performed on day 1 and 72 hrs later, the conditioned medium was collected and concentrated using Centricon YM-30. The concentration of PGE2 secreted into the medium was measured with an EIA kit for human PGE2 (Cayman Chemical, Michigan, USA).

[2] = system: AP-1 transcriptional activity; assay: AP-1 luciferase assay; conditions: U87MGsiFAT1 vs U87siControl, p<0.01
Procedure: (§2) AP-1 and COX-2 Promoter Luciferase Assay: U87MG cells (40000 cells/well) were plated in 6-well plates in triplicate on day zero. On day 1, cells were transfected with siFAT1 and siControl. On day 2 cells were transiently transfected with 4×AP-1-luciferase reporter plasmids as described previously. Cells were transfected with 1 μg of AP-17× luciferase reporter plasmid, along with 50 ng of pRL-TK (Renilla luciferase) control plasmid using LIPOFECTAMINE2000 as the transfection reagent. After 48 hrs, the cells were lysed by 1× passive-lysis-buffer (Promega, Madison, Wis., USA) and assayed for luciferase activity as previously described. For COX-2 luciferase assay U87MG cells were transfected with siFAT1 and siControl on day 1 and after 4 hrs incubation were treated with 10 μM SR11302. On day2 cells were transiently transfected with COX-2 reporter plasmid and again treated with 10 μM SR11302. After 48 hrs, the cells were assayed for luciferase activity.

PDCD4 = assay: Western blot PDCD4 protein; conditions: U87MG, A172, U373MG and T98G, vs siControl
Procedure: as §1

U87MG cells [3] = assay: Migration assay, modified Boyden chamber; conditions: U87MGsiFAT1 vs siControl, 24 hrs assay, 72 hrs post-transfection, P<0.01
Procedure: (§3) Migration and Invasion Assays: The modified Boyden chamber/matrigel assay was performed according to the manufacturer's directions (BD Biosciences, Bedford, Mass.). For in vitro migration assays, chambers with control inserts that lacked the matrigel coating were used. Transfections were carried out in U87MG and A172 cells and 48 hrs later 3×10^4 U87MG cells/well and 7×10^4 A172 cells/well were resuspended in serum-free DMEM and seeded in triplicate in matrigel-coated (1 mg/ml; BD Biosciences) and uncoated control inserts (8-μm pore-size, BD Bioscience, Bedford, Mass.). The remaining protocol was done as previously described.

A172 cells = assay: Migration assay, modified Boyden chamber; conditions: A172siFAT1 vs siControl, 24 hrs assay, 72 hrs post-transfection, P<0.001
Procedure: as §3

COX-2 promoter = COX-2 promoter luciferase assay; conditions: U87MG, vs siControl+DMSO; SR11302 10 μM, 48 hrs
Procedure: as §2

U87MG and A172 cells = assay: Cell morphology, phase contrast microscopy; conditions: U87MGsiFAT1 and A172siFAT1 vs siControl, 72 hrs post transfection
Procedure: Cell Culture and siRNA Transfection: The human glioma cell lines U87MG, U373, A172, T98G, GOS3 and SW1088 were obtained from ATCC; Rockville, Md., cultured in DMEM (Sigma-Aldrich, Switzerland) supplemented with 10% (v/v) FCS (Sigma-Aldrich), 3.7 g/l sodium bicarbonate (Sigma-Aldrich), Ciprofloxacin 10 μg/ml and 5% CO2 at 37° C. For transfection, 2×10^5 cells were seeded per 25 cm^2 flask. After 24 hrs, cells were transfected with FAT1 siRNA and universal medium GC control siRNA (Invitrogen) according to the manufacturer's protocol with a final concentration of 20 nM of siRNA using LIPOFECTAMINE 2000 (Invitrogen) and Opti-Mem media (Invitrogen). After 4 hrs of siRNA transfection, the media was supplemented with DMEM containing 2×FCS. The ability of each siRNA to mediate knockdown of FAT1 mRNA was confirmed using qRT-PCR. Photomicrographs of the cells were taken using an inverted phase contrast microscope (Nikon TMS, Phase contrast microscope, Japan). For simultaneous knockdown of FAT1 and PDCD4, siRNA from Dharmacon were used. Transfection was performed as earlier with 50 nM of FAT1 siRNA along with 50 nM of PDCD4 siRNA or 50 nM of control siRNA.

siFAT1: FAT1 specific siRNA (Invitrogen), FAT Stealth RNAi siRNA-I (HSS103567), used for further experiments (sense CCCAACACACCUGUGGUCAUGGUAA; antisense UUACCAUGACCACAGGUGUGUUGGG; Stealth modification, chemistry not fully specified; listed as Homo sapiens)
DNA fragmentation (DAPI staining) (U87MG cells [1]): no DNA fragmentation; also recorded: No differences | cleaved caspase-3 (Western blot) (U87MG cells [1]): no cleaved caspase-3; also recorded: No differences | reduction in IL6 mRNA expression (IL6): ~10 fold | total c-jun protein level (c-jun): reduction | reduction of PGE2 secreted into the medium (PGE2): > 2 fold | reduction in AP-1 luciferase activity [2]: 2 fold | PDCD4 protein level (PDCD4): increased | reduction in migration (U87MG cells [3]): > 2 fold | reduction in migration (A172 cells): > 3 fold | decrease in COX-2 luciferase activity (COX-2 promoter): 1.8 fold | cell morphology (U87MG and A172 cells): significant morphological alterations; also recorded: Distinct phenotypic changes
